Assay results: patent US20080234317A1, “METHODS FOR THE IMPROVEMENT OF MEMORY AND NEUROLOGICAL FUNCTION COMPRISING THE ADMINISTRATION OF COMPOSITIONS THAT ACT AS INHIBITORS OF THE SODIUM PROTON (NA+ /H+ ) EXCHANGER, SUBTYPE 5 (NHE-5)” (SANOFI-AVENTIS, priority 2005, published 2008)
Structures can show the parent of a compound that is named as a salt.

How the values were obtained:
[1] = tested on: LTP in the CA 1 region of the hippocampus section; assay: early LTP after weak tetanus in hippocampus sections, CA 1 region (fEPSP slope); format: cell-based, Wistar rats; conditions: 10 μM
NHE-5 = molecular target: T1, NHE-5 (Homo sapiens, UniProt Q14940); assay: recovery of intracellular pH in LAP1 cells stably expressing NHE subtypes after acidification (BCECF, FLIPR); format: cell-based; conditions: LAP1 cells expressing NHE-5; pH recovery registered for two minutes
T1 construct: expressed in transfected cells
T1 sequence (Q14940 1-896): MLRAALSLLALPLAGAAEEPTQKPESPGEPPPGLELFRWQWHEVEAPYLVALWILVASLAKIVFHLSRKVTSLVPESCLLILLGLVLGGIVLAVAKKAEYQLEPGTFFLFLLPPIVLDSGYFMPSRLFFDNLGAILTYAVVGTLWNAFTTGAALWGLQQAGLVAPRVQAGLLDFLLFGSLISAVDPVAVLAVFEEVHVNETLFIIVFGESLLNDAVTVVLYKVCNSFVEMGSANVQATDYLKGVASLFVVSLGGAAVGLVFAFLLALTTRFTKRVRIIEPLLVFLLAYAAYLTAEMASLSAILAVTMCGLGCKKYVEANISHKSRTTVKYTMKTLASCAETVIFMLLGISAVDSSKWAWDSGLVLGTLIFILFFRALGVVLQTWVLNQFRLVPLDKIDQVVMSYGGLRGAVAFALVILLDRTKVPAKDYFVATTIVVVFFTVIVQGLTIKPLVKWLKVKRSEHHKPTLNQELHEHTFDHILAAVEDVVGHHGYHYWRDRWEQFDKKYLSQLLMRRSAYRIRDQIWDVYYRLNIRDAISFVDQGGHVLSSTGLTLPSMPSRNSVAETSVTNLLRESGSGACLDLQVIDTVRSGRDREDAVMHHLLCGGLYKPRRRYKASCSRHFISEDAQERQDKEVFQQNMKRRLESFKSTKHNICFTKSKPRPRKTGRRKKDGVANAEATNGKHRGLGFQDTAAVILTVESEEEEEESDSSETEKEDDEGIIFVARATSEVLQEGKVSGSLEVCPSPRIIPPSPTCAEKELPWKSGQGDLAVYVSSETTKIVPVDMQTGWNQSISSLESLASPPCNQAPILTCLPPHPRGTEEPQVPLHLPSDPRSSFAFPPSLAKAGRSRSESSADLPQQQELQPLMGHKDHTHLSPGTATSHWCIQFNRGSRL
Protocol: In order to obtain pharmacological data for NHE-5 inhibition, the recovery in the intracellular pH (pHi) of LAP1 cells, which stably express the different subtypes of the sodium-proton exchanger (NHE), was determined after an acidification. This recovery occurs even under bicarbonate-free conditions in the case of functioning NHE. To this end, the pHi was determined with the pH-sensitive fluorescent dye BCECF (Molecular Probes, Eugene, Oreg., USA; the precursor BCECF-AM is used). […] The pH recovery was started by the addition of 90 μl of Na^+-containing buffer (133.8 mM NaCl, 4.7 mM KCl, 1.25 mM CaCl2, 1.25 mM MgCl2, 0.97 mM Na2HPO4, 0.23 mM NaH2PO4, 10 mM Hepes, 5 mM glucose; a pH of 7.4 is established with 1 M NaOH) in the analytical instrument (FLIPR, “Fluorometric Imaging Plate Reader”, Molecular Devices, Sunnyvale, Calif., USA). The BCECF fluorescence was determined at an excitation wavelength of 498 nm and the FLIPR emission filter 1 (band gap from 510 to 570 nm). The subsequent changes in fluorescence were registered for two minutes at NHE-5 as a measure of the pH recovery. […] From the percentages of the pH recovery, the IC50 value of the particular substance for the individual NHE subtypes was calculated by means of the program XLFit (idbs, Surrey, UK).

Structure (SMILES)	melting point	potentiation of the EPSP, % of the baseline ([1]; flushed 20 min before stimulation, washed out 20 min after, 80 min after the stimulus, control 113%)	intrinsic effect on synaptic transmission ([1]; baseline recording before tetanus, rat hippocampus sections)	maintenance of the weak LTP ([1]; weak tetanus, rat hippocampus sections)	IC50 (NHE-5) [nM]
CN1Cc2c(Cl)cc(Cl)cc2C(c2ccc(S(=O)(=O)N=C(N)N)cc2)C1 (centres unmarked) (as salt: hydrochloride) [Example 1, N-Diaminomethylene-4-(6,8-dichloro-2-methyl-1,2,3,4-tetrahydroisoquinolin-4-yl)benzenesulfonamide, dihydrochloride]	140 °C (dec.)				
CN1Cc2c(Cl)cc(Cl)cc2C(c2ccc(S(=O)(=O)N=C(N)N)cc2)C1 (centres unmarked) [Example 1, N-Diaminomethylene-4-(6,8-dichloro-2-methyl-1,2,3,4-tetrahydroisoquinolin-4-yl)benzenesulfonamide, dihydrochloride]		under 137 % of the baseline	no intrinsic effect on synaptic transmission	improve maintenance of the weak LTP	370
